These results are taken from US20090023163A1, “Method of Measuring Enzyme Activity and Method of Evaluating Compound” (priority 2005, published 2009).

Holding throughout (type): biochemical
In test [1] the target is T1, hLCE (human long chain fatty acyl elongase) (Homo sapiens, UniProt Q9H5J4).
T1 construct: made in house; host or cells: Pichia pastoris (yeast), microsomal sample
T1 sequence (Q9H5J4 1-265): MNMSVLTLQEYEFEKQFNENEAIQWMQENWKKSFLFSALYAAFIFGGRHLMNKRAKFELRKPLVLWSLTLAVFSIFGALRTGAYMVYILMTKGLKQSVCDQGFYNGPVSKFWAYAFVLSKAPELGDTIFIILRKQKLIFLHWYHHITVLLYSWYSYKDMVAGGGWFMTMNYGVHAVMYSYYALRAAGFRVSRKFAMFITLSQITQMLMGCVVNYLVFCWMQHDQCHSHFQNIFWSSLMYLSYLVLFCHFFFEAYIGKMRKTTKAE
The test can be described thus: Measuring LCE activity using N-Tag-hACBP (SPA). Particulars: yeast microsomal sample of hLCE, 40 μM long chain fatty acid CoA, 60 μM malonyl-CoA, 37° C. 2 hours, FIG. 1. The procedure: An assay buffer solution (100 mM sodium chloride, 100 mM Tris buffer solution, pH 6.5) containing the above-mentioned yeast microsomal sample, 1 μM rotenone (manufactured by Sigma), 1 mM NADPH (reduced nicotinamide adenine dinucleotide phosphate, manufactured by Sigma), 20 μM fatty acid-free bovine serum albumin (manufactured by Sigma), 40 μM long chain fatty acid CoA (manufactured by Sigma), and 50,000 dpm of 60 μM malonyl-CoA (manufactured by Sigma, Muromachi Yakuhin Kagaku) was incubated at 37° C. for 2 hours in a 96-well Opti-plate (Packard), and then, 0.25% octyl-beta-glucoside was added thereto to stop the reaction.
Subsequently, 2 μg of a human acyl-CoA-binding protein tagged with a His tag at the N terminus and 500 μg of SPA resin (PVT copper His-Tag SPA Beads, manufactured by Amersham) were added thereto, and the resulting mixture was incubated at 37° C. for 30 minutes.
The solution after incubation was centrifuged at 3,000 rpm, and an activity was measured using a Top Count (Packard). Here, in order to evaluate a specific activity, an expression vector in which hLCE was not cloned was transfected into a host yeast, Pichia pastris by the electroporation method, whereby a transformed yeast was obtained. […]

For test [2], the target named is T2, hElovl-3 (human elongase of very long chain fatty acids-like 3) (Homo sapiens, UniProt Q9HB03).
T2 construct: made in house; host or cells: HEK293, microsomal sample
T2 sequence (Q9HB03 1-270): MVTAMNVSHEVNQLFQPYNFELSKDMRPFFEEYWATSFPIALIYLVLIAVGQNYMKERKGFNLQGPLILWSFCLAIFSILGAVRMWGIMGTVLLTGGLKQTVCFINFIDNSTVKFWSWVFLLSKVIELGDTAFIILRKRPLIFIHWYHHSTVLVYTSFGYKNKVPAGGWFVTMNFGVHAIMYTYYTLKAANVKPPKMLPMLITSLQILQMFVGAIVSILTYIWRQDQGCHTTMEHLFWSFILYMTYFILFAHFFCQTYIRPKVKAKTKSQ
The test can be described thus: Measuring activity of hElovl-3 using N-Tag-hACBP (SPA). To be noted: HEK293 microsomal sample of hElovl-3, 40 μM long chain fatty acid CoA, 60 μM malonyl-CoA, 37° C. 2 hours, FIG. 2. The procedure:
(§1) An assay buffer solution (100 mM sodium chloride, 100 mM Tris buffer solution, pH 6.5) containing the cell microsomal sample of hElovl-3 or hElovl-1 obtained by the above-mentioned preparation method, 1 μM rotenone (manufactured by Sigma), 1 mM NADPH (reduced nicotinamide adenine dinucleotide phosphate, manufactured by Sigma), 20 μM fatty acid-free bovine serum albumin (manufactured by Sigma), 40 μM long chain fatty acid CoA (manufactured by Sigma, manufactured by Avanti), and 50,000 dpm of 60 μM malonyl-CoA (manufactured by Sigma, Muromachi Yakuhin Kagaku) was incubated at 37° C. for 2 hours in a 96-well Opti-plate (Packard), and then, 0.25% octyl-beta-glucoside was added thereto to stop the reaction.
(§2) Subsequently, 2 μg of a human acyl-CoA-binding protein tagged with a His tag at the N terminus and 500 μg of SPA resin (PVT copper His-Tag SPA Beads, manufactured by Amersham) were added to the reaction solution, and the resulting mixture was incubated at 37° C. for 30 minutes, followed by centrifugation at 3,000 rpm, and an activity was measured using a Top Count (Packard).
(§3) In order to evaluate a specific activity, an expression vector in which either enzyme was not cloned was transfected into a host cell, HEK293 by the host cationic lipid method, and comparison was carried out with the microsomal sample obtained by a standard method from the expressing cell.

For test [3], the target named is T3, hElovl-1 (human elongase of very long chain fatty acids-like 1) (Homo sapiens, UniProt Q9BW60).
T3 construct: implied by vector pCMV-Tag2B, own knowledge) (N); made in house; host or cells: HEK293, microsomal sample
T3 sequence (Q9BW60 1-279): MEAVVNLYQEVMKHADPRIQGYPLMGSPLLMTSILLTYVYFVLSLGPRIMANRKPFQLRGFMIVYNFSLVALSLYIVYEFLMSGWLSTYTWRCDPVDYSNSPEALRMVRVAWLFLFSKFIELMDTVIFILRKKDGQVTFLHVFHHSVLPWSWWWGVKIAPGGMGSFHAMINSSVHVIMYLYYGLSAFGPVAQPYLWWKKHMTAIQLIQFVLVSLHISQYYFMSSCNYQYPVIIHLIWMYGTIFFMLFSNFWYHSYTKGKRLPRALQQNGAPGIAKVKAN
The experiment in a line: Measuring activity of hElovl-1 using N-Tag-hACBP (SPA). To be noted: HEK293 microsomal sample of hElovl-1, 40 μM long chain fatty acid CoA, 60 μM malonyl-CoA, 37° C. 2 hours, FIG. 3. As for the experimental part: as §1, §2, §3

With `CCCCCCCCCCCCCCCCCC(=O)SCCNC(=O)CCNC(=O)[C@H](O)C(C)(C)COP(=O)(O)OP(=O)(O)OC[C@H]1O[C@@H](n2cnc3c(N)ncnc32)[C@H](O)[C@@H]1OP(=O)(O)O` [stearoyl-CoA], the “enhancement of a signal (enzyme activity with the acyl-CoA used as the substrate)” value (from here on “enhancement of a signal”) in test [1] was “enhancement of a signal was not observed”; in test [2] it was “specific enhancement of a signal was observed”.

`CCCCCCCCCCCCCCCCCCCCCCCC(=O)SCCNC(=O)CCNC(=O)[C@H](O)C(C)(C)COP(=O)(O)OP(=O)(O)OC[C@H]1O[C@@H](n2cnc3c(N)ncnc32)[C@H](O)[C@@H]1OP(=O)(O)O` [lignoceroyl-CoA]: the “enhancement of a signal” value in test [3] and in test [2] was “enhancement of a signal was not observed” in each case.

Consider `CCCCCCCCCCCCCCCC(=O)SCCNC(=O)CCNC(=O)[C@H](O)C(C)(C)COP(=O)(O)OP(=O)(O)OC[C@H]1O[C@@H](n2cnc3c(N)ncnc32)[C@H](O)[C@@H]1OP(=O)(O)O` [palmitoyl-CoA], for which the “enhancement of a signal” value in test [1] was “specific enhancement of a signal was observed”.

As for `CCCCCCCCCCCCCCCCCCCC(=O)SCCNC(=O)CCNC(=O)[C@H](O)C(C)(C)COP(=O)(O)OP(=O)(O)OC[C@H]1O[C@@H](n2cnc3c(N)ncnc32)[C@H](O)[C@@H]1OP(=O)(O)O` [arachidoyl-CoA], in test [3], the “enhancement of a signal” value is “specific enhancement of a signal was observed”.
